Assay results from publication PMC2225439, “Amyloid as a Depot for the Formulation of Long-Acting Drugs” (PLoS Biology, 2008).

What was measured:
[1] = Electron microscopy of negative-stained samples; format: physicochemical; set-up: key to EM^8 / EM^30: fib, fibrils; nfib, no fibrils; conditions: 1 mg/ml in 5% D-mannitol, room temperature, at least two independent experiments
Protocol: To formally determine the formation of amyloid fibrils by GnRH analogs and to characterize other possible assemblies present in the sample, EM was done on all of the GnRH analogs. Since the EM analysis is for a qualitative interpretation only, amyloid fibrils and other small aggregates might be observed under the electron microscope even if only a minority of the sample forms fibrils. Samples were studied after 8 and 30 d of incubation. […] The fibrils show a wide variety of morphologies, comprising helical ultrastructures with varying degrees of lateral association. Furthermore, the fibrils are composed of one or more filaments, resulting in overall diameters ranging from approximately 6 to 12 nm. No oligomers are observed for the long-acting compounds at day 8 or at day 30 (Figures 2 and S2).
GnRH analogs were dissolved in a glass tube in 1 ml of 5% D-mannitol and 0.01% sodium azide at a concentration of 1 mg/ml. The GnRH analogs were then incubated at room temperature without stirring. The fibril formation was monitored by EM, CR, and time-resolved by Thio T binding studies. Three independent experiments were performed for each sample.
A 5-μl aliquot of peptide sample was diluted into 50 μl of water to a peptide concentration of approximately 50 μM, spotted on a glow-discharged, carbon-coated Formvar grid (Electron Microscopy Sciences), incubated for 5 min, washed with distilled water, and then stained with 1% (w/v) aqueous uranyl formate solution. Uranyl formate solutions were filtered through 0.2-μm sterile syringe filters (Corning) before use. EM analysis was performed using a JEOL JEM-100CXII electron microscope at 80 kV with nominal magnifications between 36,000 and 72,000. Images were recorded digitally by using the SIS Megaview III imaging system. At least two independent experiments were carried out for each sample.

[2] = Peptide release from amyloid (dialysis experiment); conditions: 3.5-kDa MWCO, room temperature, 35 d
Protocol: Although amyloid fibrils are very stable, they must follow thermodynamic equilibrium conditions between fibril and monomer. […] A total of 200 μl of 30-d-old GnRH analog (in) was dialyzed 4 ml of 5% D-mannitol (out). A 3.5-kDa cutoff, which is twice the size of the peptides studied, was chosen to ensure that the released particles are most likely monomeric. The peptide release and the remaining aggregates were monitored by fluorescence over 35 d at room temperature.
A 200-μl aliquot of aged GnRH in solution conditions given above was transferred into a 0.6-ml Eppendorf tube with a hole in the cap. To study the effect of heparin on peptide release, a mixture of hormone analog and heparin (1:1 v/v) was incubated overnight in parallel with a half-diluted peptide fibril sample in 5% D-mannitol and 0.01% sodium azide. The hole in the cap of the Eppendorf tube was sealed with a 3.5-kDa molecular weight cutoff (MWCO) membrane. Next, the Eppendorf tube was inserted upside down into a 15-ml Falcon tube containing 4 ml of 5% D-mannitol in water and 0.01% sodium azide. Care was taken to make sure that the membrane was exposed to solutions both in and outside and that any bubbles at the membrane interface were removed. The tubes were then incubated at room temperature. To measure the remaining peptide concentration inside the 0.6-ml Eppendorf tube, a 5-μl aliquot was diluted into 500 μl water with 5% D-mannitol, 0.01% sodium azide, and the fluorescence was measured with excitation at 280 nm and emission in the range of 290–500 nm. The excitation slit width was 2 nm, and emission slit width was 11 nm. To determine the peptide concentration outside the membrane in the 15-ml tube, an aliquot of 250 μl of solution was taken from the releasing medium, diluted into 500 μl final volume by 5% D-mannitol, 0.01% sodium azide, and fluorescence was measured. Following spectra recording, the dialysis system was reassembled as described above. […] The normalized intensity maxima from inside and outside the membrane were plotted as a function of time and fit by an exponential function to extract the half-life of the fibrils and the K off, respectively. […] The extracted half-life, t 1/2, is the time taken, during which the fluorescence signal inside the 0.6-ml Eppendorf tube drops by 50%.

α-Syn = target: T1, α-Syn (Homo sapiens, UniProt P37840); experiment: Cross-seeding of α-Syn by L20 fibrils; conditions: matured fibrils 5% v/v with 400 μM α-Syn in PBS pH 7.4, 37 °C, vigorous stirring, 30 d; Thio T
T1 construct: made in house
Protocol: Although the seeding of amyloids requires a high amino acid sequence similarity between the protein/peptide of the seed and its soluble host counterpart, cross-seeding between different protein species have been documented. To test whether amyloids of long-acting GnRH analogs are able to cross-seed with a protein associated with Parkinson disease, α-Syn, a seeding reaction was done with a small amount of matured L20 fibrils (5% v/v) in the presence of α-Syn (95% v/v; 400 μM concentration of monomeric solution [pH 7.4] in PBS). The fibril growth of the mixture as well as α-Syn in PBS as control were followed over a period of 30 d by Thio T binding.
A total of 5 μl of matured L20 fibril solution at a concentration of 1 mg/ml in 5% D-mannitol, 0.01% sodium azide was mixed with 95 μl of freshly prepared GnRH solution in the same solution condition followed by incubation at room temperature without stirring. […] Once a week, a 10-μl aliquot was diluted into 500 μl water containing 5% D-mannitol, 0.01% sodium azide, and 10 μl of 1 mM Thio T to measure the Thio T fluorescence as described above. […] The protein concentration of the supernatant was measured by UV absorbance with ɛ280 of 6,500 M^−1cm^−1. […] The formation of amyloid was monitored regularly for the mixture (α-Syn+L20) and α-Syn by Thio T binding.

Ac-DNal-DCpa-Agl(Nic)-Ser-Aph(Ac)-DAph(Ac)-Leu-ILys-Pro-DAla-NH2 [L20]
EM^8 ([1]; electron microscopy at day 8 of incubation): fib
EM^30 ([1]; electron microscopy at day 30 of incubation): fib
KD ([2]; dissociation constant of the aggregates = final monomer concentration, 200 μl of 30-d-old analog dialyzed against 4 ml 5% D-mannitol, fluorescence ex 280 nm): 8 µM
t1/2 ([2]; half-life of fibrils: time in which fluorescence inside drops by 50%, dialysis of 30-d-old analog, 5% D-mannitol, exponential fit, 2 d = intrinsic diffusion of monomer): 35 days
cross-seeding of α-Syn (α-Syn): did not significantly influence the aggregation of α-Syn
